Experimental data reported in patent publication US20230285556A1, “METHODS AND COMPOSITIONS FOR TREATING CANCER” (Omeros Corporation, priority 2021, published 2023).
Values joined by “and” are separate entries in the source; they are usually repeats but may differ in a detail not shown here. Identical values can stand only once. Values belong to the molecule of their own block, whether it stands above or below them.

Assays:
[1] = tested on: human CD8 T cells; experiment: Example 4: human CD8 T cell expansion with GPR174, A2A, PKA or EPAC inhibitors, IL-2 after restimulation; assay type: cell-based; settings: 300 nM Compound #10, 100 nM ZM-241385, 500 μM Rp-8-Br-cAMPS, 5 μM ESI-09; 5.5 hours restimulation
Protocol: Purified human CD8 T cells were cultured in 24-well plates with the following conditions per well: • 2 mL X-VIVO™ 15 media (Lonza) • 0.4 million human CD8 T cells (Donor A) • 2 million Human T-Activator CD3/CD28 Dynabeads® (ThermoFisher) • 10 ng/mL human IL-7 (R&D Systems) • 10 ng/mL human IL-15 (R&D Systems)
and the following individual conditions, ±300 nM Compound #10: • 1. DMSO vehicle control • 2. […] 500 μM Rp-8-Br-cAMPS • 4. 5 μM ESI-09
On days 3, 5, and 7, cultures were washed and seeded at 0.5 cells million per well with the same small molecule inhibitor conditions, and with IL-7 and IL-15.
After 5.5 hours of culture, supernatants were harvested and analyzed for IL-2 content (MesoScale Discovery).

[2] = tested on: human CD8 T cells; experiment: Example 5: human CD8 T cell expansion with cAMP pathway and p38 inhibitors, IL-2 after restimulation; assay type: cell-based; settings: 500 μM Rp-8-Br-cAMPS, 0.5 μM doramapimod
Protocol: (§1) DMSO vehicle control • 2. […] 500 μM Rp-8-Br-cAMPS • 4. […] 0.5 μM doramapimod • 6. Media control
(§2) or the following individual conditions for the experiment shown in FIG. 8, each ±0.5 μM doramapimod: • 1. DMSO vehicle control • 2. 500 μM Rp-8-Br-cAMPS • 3. […] 5 μM ESI-09
(§3) On days 3, 5, and 7, cultures were washed and seeded at 0.5 cells million per well with the same small molecule inhibitor conditions, and with IL-7 and IL-15. On day 10, cells were washed twice (12 mL media each), and restimulated in quadruplicate in 96-well round-bottom plates with the following conditions: • 0.1 mL X-VIVO™ 15 media (Lonza) • 0.05 million cells from each condition • 0.1 million Human T-Activator CD3/CD28 Dynabeads® (ThermoFisher)
(§4) After overnight culture, supernatants were harvested and analyzed for IL-2 content (MesoScale Discovery).

[3] = tested on: human CD8 T cells; experiment: Example 5: T cell number increase during 10-day expansion; assay type: cell-based
Protocol: as §1, §2, §3

[4] = tested on: OT-I TCR transgenic CD8 T cells; experiment: Example 6: OT-I CD8 T cell expansion with PKA and p38 inhibitors, IL-2 after restimulation with EG7 cells; assay type: cell-based, mouse; settings: 0.2 μM doramapimod, 500 μM Rp-8-Br-cAMPS
Protocol: (§5) and the following individual conditions: • 1. DMSO vehicle control • 2. 0.2 μM doramapimod • 3. 500 μM Rp-8-Br-cAMPS • 4. 0.2 μM doramapimod+500 μM Rp-8-Br-cAMPS
On day 8, cells were immunophenotyped with the following antibodies: anti-CD8 BV570, anti-CD62L eFluor450, anti-TCF1/TCF7 PE, anti-CD39 PerCP-eFluor710, anti-CD69 BV605, anti-PD-1 BV711, anti-CTLA-4 APC, and LIVE/DEAD™ Fixable Green Dead Cell Stain.
as §4

[5] = tested on: OT-I TCR transgenic CD8 T cells; experiment: Example 6: immunophenotyping of OT-I T cells on day 8; assay type: cell-based, mouse; settings: 8 days of culture
Protocol: as §5
On days 2, 4, 6, and 8, cells were counted, washed, and reseeded at 0.5 million per well in 2 mL media with the same 4 doramapimod/Rp-8-Br-cAMPS conditions and with recombinant mouse IL-2 and IL-7 (5 ng/mL each). On day 8, cells were immunophenotyped with the following antibodies: anti-CD8 BV570, anti-CD62L eFluor450, anti-TCF1/TCF7 PE, anti-CD39 PerCP-eFluor710, anti-CD69 BV605, anti-PD-1 BV711, anti-CTLA-4 APC, and LIVE/DEAD™ Fixable Green Dead Cell Stain.

[6] = tested on: EG7 tumors; experiment: Example 7: adoptive transfer of inhibitor-precultured OT-1 T cells into EG7 tumor-bearing mice; assay type: in vivo, mouse
Protocol: as §5
On day 6 cells were seeded in 6-well plates with […] per well, and on day 8 cells were seeded in T75 flasks in 30 mL media to obtain enough cells to transfer into EG7 tumor-bearing mice.
C57BL/6 female mice were implanted with 6 million EG7 tumor cells subcutaneously on day 4 of the OT-1 T cell expansion. On day 6 of tumor growth (day 10 of OT-1 T cell expansion) OT-1 T cells were washed and injected retro-orbitally into tumor bearing mice that had been sorted into 4 groups with equal tumor volume distributions (n=8). Via retroorbital injection, mice received 2 million OT1 T cells of each of the 4 culture conditions. Tumor volume (mm^3) was calculated as 0.5×(length×width^2), where length represents the largest tumor diameter and width represents the perpendicular tumor diameter. Mice were euthanized when the sum of the two measurements exceeded 30 mm.

[7] = tested on: OT-I TCR transgenic CD8 T cells; experiment: Example 8: OT-I CD8 T cell 9-day expansion with PKA, p38, PI3Kδ inhibitors, IL-2 after restimulation with EG7 cells; assay type: cell-based, mouse
Protocol: DMSO vehicle control • 2. 0.5 μM doramapimod • 3. 500 μM Rp-8-Br-cAMPS • 4. 0.5 μM doramapimod+500 μM Rp-8-Br-cAMPS • 5. 1 μM idelalisib • 6. 1 μM idelalisib+0.5 μM doramapimod • 7. 1 μM idelalisib+500 μM Rp-8-Br-cAMPS • 8. 1 μM idelalisib+0.5 μM doramapimod+500 μM Rp-8-Br-cAMPS
On days 2, 4, 6, and 8, cells were counted, washed and reseeded at 0.5 million per well in 2 mL media with the same 8 conditions and with recombinant mouse IL-2 and IL-7 (5 ng/mL each). […] Cells were also washed three times (12 mL media each), and restimulated in quintuplicate in 96-well round-bottom plates with the following conditions: • 0.1 mL RP10 media • 0.05 million OT-I T cells from each condition • 0.05 million EG7 cells
as §4

[8] = molecular target: T1, GPR174 (Homo sapiens, UniProt Q9BXC1); experiment: CRA (EC50) of GPR174 inhibitor compounds, tested as described in US 20200276190; assay type: cell-based; settings: multiple values = separate experiments
T1 sequence (Q9BXC1 whole entry): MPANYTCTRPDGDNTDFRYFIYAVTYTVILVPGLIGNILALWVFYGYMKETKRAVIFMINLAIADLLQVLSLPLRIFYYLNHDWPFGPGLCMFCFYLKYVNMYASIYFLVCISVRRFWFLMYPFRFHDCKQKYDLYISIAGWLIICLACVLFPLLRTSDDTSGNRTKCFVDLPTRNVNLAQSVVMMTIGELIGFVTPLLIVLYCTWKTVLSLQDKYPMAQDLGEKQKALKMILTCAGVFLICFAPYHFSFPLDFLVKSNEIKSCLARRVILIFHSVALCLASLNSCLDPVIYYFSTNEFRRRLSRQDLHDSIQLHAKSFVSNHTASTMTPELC
Protocol: (§6) Where present, multiple EC50 values correspond to values obtained in separate experiments. […] The activity of the compounds was tested as described in US 20200276190, the disclosure of which is incorporated herein by reference.

[9] = molecular target: T1, GPR174; experiment: Human GPR174 CRE activity / Gs signaling; assay type: cell-based
Protocol: as §6

SMILES: Nc1ncnc2c1nc(Br)n2[C@@H]1O[C@@H]2COP([O-])(=S)O[C@H]2[C@H]1O.[Na+] (single isomer, unassigned) [Rp-8-Br-cAMPS, 8-Br-cAMPS, Rp-isomer]
IL-2 production following restimulation, fold increase vs vehicle (FIG. 6) [1]: 3.7 fold | IL-2 production following restimulation, fold above vehicle control (FIG. 8) ([2]; 10 μM HJC-0197, 5 μM ESI-09): 2 fold | IL-2 production following restimulation, fold vs vehicle (FIG. 7) ([2]; GPR174+A2A inhibitors, overnight restimulation): 3.6 fold | T cell growth during the 10-day culture relative to vehicle-treated cells (FIG. 8) [3]: ~2 fold | fold-increase in T cell number during the 10-day expansion (FIG. 7) ([3]; vehicle and media controls approximately 50-fold): 170 fold | IL-2 production from 8-day OT-I cultures, fold vs vehicle control ([4]; day 8 restimulation with EG7 cells): 5.3 fold | IL-2 production from 10-day OT-I cultures, fold over vehicle control ([4]; day 10 restimulation with EG7 cells): 18 fold | downregulation of CTLA-4 [5]: particularly effective at downregulating CTLA-4 | increase in cells expressing both CD62L and TCF1/TCF7 relative to vehicle control [5]: smaller increases | percentage of OT-I T cells expressing both CD39 and CD69 ([5]; vehicle 22%): smaller reductions | tumor growth / tumor volume after transfer of precultured OT-1 T cells ([6]; 2 million OT-1 T cells expanded 10 days with 0.2 μM doramapimod and/or 500 μM Rp-8-Br-cAMPS, retro-orbital, relative to vehicle control cells): significantly halted and delayed tumor growth | survival of tumor-bearing mice ([6]; OT-1 T cells precultured with inhibitor(s), relative to vehicle group): intermediate survival times | Fold-change in IL-2 production relative to Vehicle control ([7]; Idelalisib (agent together with 1 μM idelalisib)): 89.9 | Fold-change in IL-2 production relative to Vehicle control ([7]; column Vehicle (without idelalisib), 0.5 μM doramapimod, 500 μM Rp-8-Br-cAMPS): 1.6

EC50 [8]: 1.5 µM and 0.9 µM
SMILES: CCOC(=O)N1CCN(c2cc(N3CCC(C)CC3)c(F)cc2[N+](=O)[O-])CC1 [Compound 1]

EC50 [8]: 3.3 µM and 3 µM and 5.1 µM
SMILES: CC(=O)N1CCN(c2cc(N3CCCCC3)c(F)cc2[N+](=O)[O-])CC1 [Compound 2]

EC50 [8]: 4.1 µM | Human GPR174 CRE Activity (type of modulation) [9]: Antagonist or allosteric modulator
SMILES: CC(=O)c1ccc(N2CCN(C(=O)c3ccc(F)cc3)CC2)c(F)c1 [Compound 3]

EC50 [8]: 0.2 µM | Human GPR174 CRE Activity (type of modulation) [9]: Antagonist
SMILES: CCCC(=O)c1ccc(N2CCN(S(=O)(=O)c3ccc(C)cc3)CC2)c(F)c1 [Compound 4]
competition with the GPR174 agonist LysoPS [9]: found to compete with the GPR174 agonist LysoPS

EC50 [8]: 1.4 µM
SMILES: O=C(c1ccccc1)N1CCN(c2cc(N3CCCCC3)c(F)cc2[N+](=O)[O-])CC1 [Compound 6]

Human GPR174 CRE Activity (type of modulation) [9]: Antagonist or allosteric modulator
SMILES: Cc1ccc(-c2nnc(Nc3ccccc3)c3ccccc23)cc1S(N)(=O)=O [Compound 19]

EC50 [8]: 5 µM | Human GPR174 CRE Activity (type of modulation) [9]: Antagonist or allosteric modulator
SMILES: Cc1ccccc1Nc1nnc(-c2ccc(C)c(S(N)(=O)=O)c2)c2ccccc12 [Compound 20]

EC50 [8]: 2.7 µM | Human GPR174 CRE Activity (type of modulation) [9]: Antagonist or allosteric modulator
SMILES: Cc1cc(Cc2ccc(NC(=O)c3cccs3)c(C)c2)ccc1NC(=O)c1cccs1 [Compound 21]
